Experimental data reported in US7741344B2, “Process for preparing purified S-BEL and R-BEL and compositions thereof” (Washington University in St. Louis, priority 2002, dated 2010).

Tested on: A-10 smooth muscle cells
Test: AVP-induced [3H]-arachidonic acid liberation from A-10 cells
Format: cell-based, rat
Conditions: 1 μM AVP, FIG. 5
Procedure: Quantification of [^3H]-Arachidonic Acid Liberation from A-10 Phospholipids—Rat aortic smooth muscle A-10 cells, cultured in 60 mm dishes (2.5×10^5 cells/dish), were radiolabeled with 0.5 μCi [^3H]-arachidonic acid per dish as previously described (29). Cells were washed once with DMEM containing 0.25% fatty acid free bovine serum albumin followed by two washes with DMEM alone. Cells were then incubated with the indicated concentrations of (R)-, (S)-, rac-BEL, or ethanol vehicle (0.1% final concentration) in DMEM for 20 min. This media was removed and the cells were then incubated with DMEM containing 10% heat-inactivated fetal bovine serum in the absence or presence of 1 μM AVP. In some tests, PMA (1 μM) or DOG (10 μM) was added to the medium containing AVP. After 5 mm, 1 ml of this medium was removed, lipids were extracted into 2 ml of chloroform/methanol/acetic acid (25:24:1 v/v) (38), and the remaining cells were scraped into 1 ml of deionized water prior to lipid extraction as described above. The chloroform layer was evaporated under nitrogen and the extracted lipids were separated by thin layer chromatography (petroleum ether/ethyl ether/glacial acetic acid 70:30:1). Regions containing fatty acids and phospholipids were scraped into vials and radioactivity was quantified by liquid scintillation spectrometry.
A-10 cells (2.5×10^5 cells/dish) were radiolabeled with [^3H]-arachidonic acid (0.5 μCi/dish) for 20 hrs. After washing to remove unincorporated [^3H]-arachidonic acid, cells were then incubated with either 1 μM or 5 μM (R)-BEL, (S)-BEL, rac-BEL, or ethanol vehicle (0.1%) in DMEM for 20 mm. This media was removed and the cells were then incubated with 3 ml of DMEM containing 10% heat-inactivated fetal bovine serum with or without 1 μM AVP. After 5 min, 1 ml of this medium was removed and lipids were extracted into 2 ml of chloroform/methanol/acetic acid (25:24:1). The remaining cells were scraped into 1 ml of deionized water and total lipids were extracted as described above. The chloroform layer was evaporated under nitrogen and the extracted lipids were separated by TLC. Regions containing fatty acids and phospholipids were scraped into vials and radioactivity was quantified by liquid scintillation spectrometry. Results are representative of four separate tests.
A-10 cells were radiolabeled with [^3H]-arachidonic acid, washed, and pre-incubated with 5 μM (S)-BEL or ethanol vehicle alone for 15 min as described in FIG. 5. DMEM media containing 10% heat-inactivated fetal bovine serum with or without 1 μM AVP was then added to the cells. After 5 min at 37° C., [^3H]-arachidonic acid released into the media and remaining within the cells (free and incorporated into phospholipids) was extracted into chloroform, separated by TLC, and quantified by liquid scintillation spectrometry as described in “Experimental Procedures”. Results are representative of three separate tests.

Row | SMILES | inhibition of AVP-induced AA release (5 μM inhibitor, 20 min pretreatment) | AVP-induced increase in non-esterified [3H]-arachidonic acid (in words) (1 and 5 μM inhibitor)
1 | O=C1O/C(=C/Br)CC[C@@H]1c1cccc2ccccc12 [(R)-BEL, (R)(E)-6-(bromomethylene)-3-(1-naphthalenyl)-2H-tetrahydropyran-2-one] | about 10% | –
2 | O=C1OC(=CBr)CCC1c1cccc2ccccc12 (racemic) [rac-BEL, Racemic (E)-6-(bromomethylene)-3-(1-naphthalenyl)-2H-tetrahydropyran-2-one] | – | significantly reduced
